Patent publication US20070049593A1 (priority 2004, published 2007)
Structures can show the parent of a compound that is named as a salt.

Each molecule was assayed against T1, HCV polymerase (Hepatitis C virus genotype 1b, UniProt P26663) (assay: biochemical).
T1 construct: a region encoding NS5B (J Virol 1991 March, 65(3), 1105-13, 544 amino acids after deletion of 47 amino acids on the C-terminal); 6xHis (C); made in house; host or cells: Escherichia coli
Parameters: species or system HCV BK strain
Outline: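 Recombinant HCV BK-strain NS5B (C-terminal 47 aa deleted, His6-tagged, E. coli), 0.5 μg/ml, run with 5 μg/ml in vitro-transcribed RNA template (polyU/3′X), ATP/GTP/CTP 50 μM, UTP 2 μM plus [3H]UTP, pH 7.5, 25° C, 90 min. TCA-precipitated RNA counted by scintillation; IC50 from activity with vs without compound.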

T1 sequence (P26663 2420-2963): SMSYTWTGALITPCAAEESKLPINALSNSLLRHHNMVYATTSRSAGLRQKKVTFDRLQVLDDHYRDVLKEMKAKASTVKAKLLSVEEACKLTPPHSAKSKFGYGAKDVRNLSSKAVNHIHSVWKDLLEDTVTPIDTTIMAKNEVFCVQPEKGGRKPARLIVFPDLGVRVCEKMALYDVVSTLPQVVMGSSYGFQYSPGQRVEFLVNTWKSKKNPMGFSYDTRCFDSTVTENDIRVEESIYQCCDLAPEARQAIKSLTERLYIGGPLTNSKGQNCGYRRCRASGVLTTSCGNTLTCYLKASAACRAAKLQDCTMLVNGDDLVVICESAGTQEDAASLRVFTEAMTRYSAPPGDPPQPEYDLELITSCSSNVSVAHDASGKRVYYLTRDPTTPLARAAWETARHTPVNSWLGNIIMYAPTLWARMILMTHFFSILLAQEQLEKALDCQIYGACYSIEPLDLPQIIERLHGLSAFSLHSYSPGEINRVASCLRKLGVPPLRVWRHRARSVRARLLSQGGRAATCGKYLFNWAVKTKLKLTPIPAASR

SMILES	IC50 [nM]
CCCN1CCC(CCN2CCn3c(c(C4CCCCC4)c4ccc(C(=O)O)cc43)-c3ccccc32)CC1 [Example 1-173, 13-cyclohexyl-5-[2-(1-propylpiperidin-4-yl)ethyl]-6,7-dihydro-5H-benzo[5,6][1,4]diazepino[7,1-a]indole-10-carboxylic acid dihydrochloride]	< 100
O=C(O)c1ccc2c(C3CCCCC3)c3n(c2c1)CCN(CCN1CCC(F)(F)CC1)c1ccccc1-3 [Example 1-174, 13-cyclohexyl-5-[2-(4,4-difluoropiperidin-1-yl)ethyl]-6,7-dihydro-5H-benzo[5,6][1,4]diazepino[7,1-a]indole-10-carboxylic acid dihydrochloride]	< 100
CCN1CCC(=C(F)CN2CCn3c(c(C4CCCCC4)c4ccc(C(=O)O)cc43)-c3ccccc32)CC1 [Example 1-175, 13-cyclohexyl-5-[2-(1-ethylpiperidin-4-ylidene)-2-fluoroethyl]-6,7-dihydro-5H-benzo[5,6][1,4]diazepino[7,1-a]indole-10-carboxylic acid dihydrochloride]	< 100
O=C(O)c1ccc2c(C3CCCCC3)c3n(c2c1)CCN(CCN1CCCCC1)c1ccc(Cl)cc1-3 [Example 1-176, 2-chloro-13-cyclohexyl-5-[2-(piperidin-1-yl)ethyl]-6,7-dihydro-5H-benzo[5,6][1,4]diazepino[7,1-a]indole-10-carboxylic acid dihydrochloride]	< 100
O=C(O)c1ccc2c(C3CCCCC3)c3n(c2c1)CCN(CCC1CCCCN1)c1ccccc1-3 (stereo not drawn) [Example 1-177, 13-cyclohexyl-5-[2-(piperidin-2-yl)ethyl]-6,7-dihydro-5H-benzo[5,6][1,4]diazepino[7,1-a]indole-10-carboxylic acid dihydrochloride]	< 100
CCN1CCCCC1CCN1CCn2c(c(C3CCCCC3)c3ccc(C(=O)O)cc32)-c2ccccc21 (stereo not drawn) [Example 1-178, 13-cyclohexyl-5-[2-(1-ethylpiperidin-2-yl)ethyl]-6,7-dihydro-5H-benzo[5,6][1,4]diazepino[7,1-a]indole-10-carboxylic acid dihydrochloride]	< 100
CSc1ccc2c(c1)N(CCN1CCCCC1)CCn1c-2c(C2CCCCC2)c2ccc(C(=O)O)cc21 [Example 1-179, 13-cyclohexyl-3-methylsulfanyl-5-[2-(piperidin-1-yl)ethyl]-6,7-dihydro-5H-benzo[5,6][1,4]diazepino[7,1-a]indole-10-carboxylic acid dihydrochloride]	< 100
NC(=O)c1ccc2c(C3CCCCC3)c3n(c2c1)CCN(CCN1CCCCC1)c1cc(Cl)ccc1-3 [Example 1-180, 3-chloro-13-cyclohexyl-5-[2-(piperidin-1-yl)ethyl]-6,7-dihydro-5H-benzo[5,6][1,4]diazepino[7,1-a]indole-10-carboxamide dihydrochloride]	< 100
O=C(O)c1ccc2c(C3CCCCC3)c3n(c2c1)CCN(CCc1cccnc1)c1ccccc1-3 [Example 1-181, 13-cyclohexyl-5-[2-(pyridin-3-yl)ethyl]-6,7-dihydro-5H-benzo[5,6][1,4]diazepino[7,1-a]indole-10-carboxylic acid dihydrochloride]	< 100
O=C(O)c1ccc2c(C3CCCCC3)c3n(c2c1)CCN(CCc1ccncc1)c1ccccc1-3 [Example 1-182, 13-cyclohexyl-5-[2-(pyridin-4-yl)ethyl]-6,7-dihydro-5H-benzo[5,6][1,4]diazepino[7,1-a]indole-10-carboxylic acid dihydrochloride]	< 100
O=C(O)c1ccc2c(C3CCCCC3)c3n(c2c1)CCN(CCN1C[C@H]2CCCC[C@H]2C1)c1ccccc1-3 [Example 1-183, 13-cyclohexyl-5-[(3aS,7aR)-2-(octahydroisoindol-2-yl)ethyl]-6,7-dihydro-5H-benzo[5,6][1,4]diazepino[7,1-a]indole-10-carboxylic acid dihydrochloride]	< 100
O=C(O)c1ccc2c(C3CCCCC3)c3n(c2c1)CCN(CCN1CCC2(CCCC2)CC1)c1ccccc1-3 [Example 1-184, 5-[2-(8-azaspiro[4.5]decan-8-yl)ethyl]-13-cyclohexyl-6,7-dihydro-5H-benzo[5,6][1,4]diazepino[7,1-a]indole-10-carboxylic acid dihydrochloride]	< 100
CCN(CC)CCN1CCn2c(c(C3CCCCC3)c3ccc(C(=O)O)cc32)-c2ccccc21 [Example 1-185, 13-cyclohexyl-5-(2-diethylaminoethyl)-6,7-dihydro-5H-benzo[5,6][1,4]diazepino[7,1-a]indole-10-carboxylic acid dihydrochloride]	< 100
CC(C)N(CCN1CCn2c(c(C3CCCCC3)c3ccc(C(=O)O)cc32)-c2ccccc21)C(C)C [Example 1-186, 13-cyclohexyl-5-(2-diisopropylaminoethyl)-6,7-dihydro-5H-benzo[5,6][1,4]diazepino[7,1-a]indole-10-carboxylic acid dihydrochloride]	< 100
CC1CC(C)CN(C(=O)CN2CCn3c(c(C4CCCCC4)c4ccc(C(=O)O)cc43)-c3ccccc32)C1 (stereo not drawn) [Example 1-187, 13-cyclohexyl-5-[2-(3,5-dimethylpiperidin-1-yl)-2-oxoethyl]-6,7-dihydro-5H-benzo[5,6][1,4]diazepino[7,1-a]indole-10-carboxylic acid monohydrochloride]	< 100
CCC1CCCN(C(=O)CN2CCn3c(c(C4CCCCC4)c4ccc(C(=O)O)cc43)-c3ccccc32)C1 (stereo not drawn) [Example 1-188, 13-cyclohexyl-5-[2-(3-ethylpiperidin-1-yl)-2-oxoethyl]-6,7-dihydro-5H-benzo[5,6][1,4]diazepino[7,1-a]indole-10-carboxylic acid monohydrochloride]	< 100
CC1CC(C)CN(CCN2CCn3c(c(C4CCCCC4)c4ccc(C(=O)O)cc43)-c3ccccc32)C1 (stereo not drawn) [Example 1-189, 13-cyclohexyl-5-[2-(3,5-dimethylpiperidin-1-yl)ethyl]-6,7-dihydro-5H-benzo[5,6][1,4]diazepino[7,1-a]indole-10-carboxylic acid dihydrochloride]	< 100
CCC1CCCN(CCN2CCn3c(c(C4CCCCC4)c4ccc(C(=O)O)cc43)-c3ccccc32)C1 (stereo not drawn) [Example 1-190, 13-cyclohexyl-5-[2-(3-ethylpiperidin-1-yl)ethyl]-6,7-dihydro-5H-benzo[5,6][1,4]diazepino[7,1-a]indole-10-carboxylic acid dihydrochloride]	< 100
Cc1ccc2c(c1)-c1c(C3CCCCC3)c3ccc(C(=O)O)cc3n1CCN2CCN1CCCCC1 [Example 1-191, 13-cyclohexyl-2-methyl-5-[2-(piperidin-1-yl)ethyl]-6,7-dihydro-5H-benzo[5,6][1,4]diazepino[7,1-a]indole-10-carboxylic acid dihydrochloride]	100 to 1000
CCCC1CCN(CCN2CCn3c(c(C4CCCCC4)c4ccc(C(=O)O)cc43)-c3ccccc32)CC1 [Example 1-192, 13-cyclohexyl-5-[2-(4-propylpiperidin-1-yl)ethyl]-6,7-dihydro-5H-benzo[5,6][1,4]diazepino[7,1-a]indole-10-carboxylic acid dihydrochloride]	< 100
C[C@@H]1CCC[C@H](C)N1CCN1CCn2c(c(C3CCCCC3)c3ccc(C(=O)O)cc32)-c2ccccc21 [Example 1-193, 13-cyclohexyl-5-[2-((2S,6R)-2,6-dimethylpiperidin-1-yl)ethyl]-6,7-dihydro-5H-benzo[5,6][1,4]diazepino[7,1-a]indole-10-carboxylic acid dihydrochloride]	< 100
